{"source": "ChEMBL document CHEMBL1649462", "about": "“Concentrations of voriconazole in healthy and inflamed lung in rats” (Antimicrob Agents Chemother, 2009)", "key": {"[1]": {"test": "AUC (0 to 6 hrs) in plasma of Wistar rat with LPS-induced severe inflammatory response at 6 mg/kg, iv administered as single dose after 6 hrs by microdialysis technique", "format": "ADME, organism-based", "parameters": "time < 6 hr, dose 6 mg/kg, route intravenous"}, "[2]": {"system": "Lung", "test": "fCmax in lung of healthy Wistar rat at 6 mg/kg, iv administered as single dose after 6 hrs by microdialysis technique", "format": "ADME, organism-based", "parameters": "dose 6 mg/kg, route intravenous", "conditions": "in vivo"}, "[3]": {"test": "Half life in plasma of Wistar rat with LPS-induced severe inflammatory response at 6 mg/kg, iv administered as single dose after 6 hrs by microdialysis technique", "format": "ADME, organism-based", "parameters": "dose 6 mg/kg, route intravenous"}, "[4]": {"test": "fTmax in skeletal muscle of healthy Wistar rat at 6 mg/kg, iv administered as single dose after 6 hrs by microdialysis technique", "format": "ADME, organism-based, Muscle tissue", "parameters": "dose 6 mg/kg, route intravenous", "conditions": "read-out: fTmax (converted)"}, "[5]": {"test": "fCmax in skeletal muscle of Wistar rat with LPS-induced severe inflammatory response at 6 mg/kg, iv administered as single dose after 6 hrs by microdialysis technique", "format": "ADME, organism-based, Muscle tissue", "parameters": "dose 6 mg/kg, route intravenous", "conditions": "in vivo"}, "[6]": {"test": "fTmax in lung of healthy Wistar rat at 6 mg/kg, iv administered as single dose after 6 hrs by microdialysis technique", "format": "ADME, organism-based", "parameters": "dose 6 mg/kg, route intravenous", "conditions": "read-out: fTmax (converted)"}, "[7]": {"test": "AUC (0 to 6 hrs) in skeletal muscle of Wistar rat with LPS-induced severe inflammatory response at 6 mg/kg, iv administered as single dose after 6 hrs by microdialysis technique", "format": "ADME, organism-based", "parameters": "time < 6 hr, dose 6 mg/kg, route intravenous"}, "[8]": {"test": "Free AUC (0 to 6 hrs) in skeletal muscle of healthy Wistar rat at 6 mg/kg, iv administered as single dose after 6 hrs by microdialysis technique", "format": "ADME, organism-based, Muscle tissue", "parameters": "dose 6 mg/kg, route intravenous", "conditions": "in vivo"}, "[9]": {"system": "Lung", "test": "fCmax in lung of Wistar rat with LPS-induced severe inflammatory response at 6 mg/kg, iv administered as single dose after 6 hrs by microdialysis technique", "format": "ADME, organism-based", "parameters": "dose 6 mg/kg, route intravenous", "conditions": "in vivo"}, "[10]": {"test": "Protein binding in female Sprague-Dawley rat plasma at 30 mg/kg, po for 6 days", "format": "ADME, organism-based", "parameters": "dose 30 mg/kg, route oral", "conditions": "read-out: PPB (converted)"}, "[11]": {"test": "Cmax in plasma of Wistar rat with LPS-induced severe inflammatory response at 6 mg/kg, iv administered as single dose after 6 hrs by microdialysis technique", "format": "ADME, organism-based", "parameters": "dose 6 mg/kg, route intravenous"}, "[12]": {"test": "fTmax in lung of Wistar rat with LPS-induced severe inflammatory response at 6 mg/kg, iv administered as single dose after 6 hrs by microdialysis technique", "format": "ADME, organism-based", "parameters": "dose 6 mg/kg, route intravenous", "conditions": "read-out: fTmax (converted)"}, "[13]": {"test": "Half life in plasma of healthy Wistar rat at 6 mg/kg, iv administered as single dose after 6 hrs by microdialysis technique", "format": "ADME, organism-based", "parameters": "dose 6 mg/kg, route intravenous"}, "[14]": {"test": "Protein binding in male Sprague-Dawley rat plasma at 30 mg/kg, po for 6 days", "format": "ADME, organism-based", "parameters": "dose 30 mg/kg, route oral", "conditions": "read-out: PPB (converted)"}, "[15]": {"test": "fTmax in skeletal muscle of Wistar rat with LPS-induced severe inflammatory response at 6 mg/kg, iv administered as single dose after 6 hrs by microdialysis technique", "format": "ADME, organism-based, Muscle tissue", "parameters": "dose 6 mg/kg, route intravenous", "conditions": "read-out: fTmax (converted)"}, "[16]": {"test": "fCmax in skeletal muscle of healthy Wistar rat at 6 mg/kg, iv administered as single dose after 6 hrs by microdialysis technique", "format": "ADME, organism-based, Muscle tissue", "parameters": "dose 6 mg/kg, route intravenous", "conditions": "in vivo"}, "[17]": {"test": "Cmax in plasma of healthy Wistar rat at 6 mg/kg, iv administered as single dose after 6 hrs by microdialysis technique", "format": "ADME, organism-based", "parameters": "dose 6 mg/kg, route intravenous"}, "[18]": {"test": "AUC (0 to 6 hrs) in lung of Wistar rat with LPS-induced severe inflammatory response at 6 mg/kg, iv administered as single dose after 6 hrs by microdialysis technique", "format": "ADME, organism-based", "parameters": "time < 6 hr, dose 6 mg/kg, route intravenous"}, "[19]": {"test": "Tmax in plasma of Wistar rat with LPS-induced severe inflammatory response at 6 mg/kg, iv administered as single dose after 6 hrs by microdialysis technique", "format": "ADME, organism-based", "parameters": "dose 6 mg/kg, route intravenous"}, "[20]": {"test": "Tmax in plasma of healthy Wistar rat at 6 mg/kg, iv administered as single dose after 6 hrs by microdialysis technique", "format": "ADME, organism-based", "parameters": "dose 6 mg/kg, route intravenous"}, "[21]": {"test": "AUC (0 to 6 hrs) in plasma of healthy Wistar rat at 6 mg/kg, iv administered as single dose after 6 hrs by microdialysis technique", "format": "ADME, organism-based", "parameters": "time < 6 hr, dose 6 mg/kg, route intravenous"}, "[22]": {"system": "Lung", "test": "Free AUC (0 to 6 hrs) in lung of healthy Wistar rat at 6 mg/kg, iv administered as single dose after 6 hrs by microdialysis technique", "format": "ADME, organism-based", "parameters": "dose 6 mg/kg, route intravenous", "conditions": "in vivo"}}}
{"compound": "C[C@@H](c1ncncc1F)[C@](O)(Cn1cncn1)c1ccc(F)cc1F", "note": "[VORICONAZOLE]", "values": [{"measurement": "AUC(0-t) at 6 h", "setting": "[1]", "result": 22700, "unit": "ng·h/mL"}, {"measurement": "fCmax", "setting": "[2]", "result": 2.6, "unit": "mg/L"}, {"measurement": "half-life", "setting": "[3]", "result": 11.3, "unit": "h"}, {"measurement": "Tmax", "setting": "[4]", "result": 3.25, "unit": "h"}, {"measurement": "fCmax", "setting": "[5]", "result": 2.2, "unit": "mg/L"}, {"measurement": "Tmax", "setting": "[6]", "result": 2.28, "unit": "h"}, {"measurement": "AUC(0-t) at 6 h", "setting": "[7]", "result": 8450, "unit": "ng·h/mL"}, {"measurement": "fAUC", "setting": "[8]", "result": 530, "unit": "mg·min/L"}, {"measurement": "fCmax", "setting": "[9]", "result": 2.3, "unit": "mg/L"}, {"measurement": "fraction unbound at 144 h", "setting": "[10]", "result": 0.34}, {"measurement": "Cmax", "setting": "[11]", "result": 6300, "unit": "ng/mL"}, {"measurement": "Tmax", "setting": "[12]", "result": 1.87, "unit": "h"}, {"measurement": "half-life", "setting": "[13]", "result": 10.2, "unit": "h"}, {"measurement": "fraction unbound at 144 h", "setting": "[14]", "result": 0.34}, {"measurement": "Tmax", "setting": "[15]", "result": 2.17, "unit": "h"}, {"measurement": "fCmax", "setting": "[16]", "result": 2.2, "unit": "mg/L"}, {"measurement": "Cmax", "setting": "[17]", "result": 5400, "unit": "ng/mL"}, {"measurement": "AUC(0-t) at 6 h", "setting": "[18]", "result": 8170, "unit": "ng·h/mL"}, {"measurement": "Tmax", "setting": "[19]", "result": 0.25, "unit": "h"}, {"measurement": "Tmax", "setting": "[20]", "result": 0.817, "unit": "h"}, {"measurement": "AUC(0-t) at 6 h", "setting": "[21]", "result": 19600, "unit": "ng·h/mL"}, {"measurement": "fAUC", "setting": "[22]", "result": 608, "unit": "mg·min/L"}]}
